Laboratory results from PubChem BioAssay (NCI).
Several values for one entry are separate records, joined by “and”; a condition that tells them apart may be missing. Identical values can stand only once.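 Dose response: 5 concentrations. Exposure: 48 h. Format: 96-well plates. Endpoint: linear interpolation; highest concentration if not reached. The concentration for 50% growth inhibition is given as GI50. TGI marks complete inhibition of growth.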

Legend:
Assay in all cases: DTP human tumour cell line panel, 48 h
IGROV1 ovarian = system: IGROV1 ovarian
NCI-H522 lung = system: NCI-H522 lung
HS 578T breast = system: HS 578T breast
MOLT-4 leukemia = system: MOLT-4 leukemia
T-47D breast = system: T-47D breast
MCF7 breast = system: MCF7 breast
SK-MEL-2 melanoma = system: SK-MEL-2 melanoma
A549 NSCLC = system: A549 NSCLC
HCT-15 colon = system: HCT-15 colon
HOP-92 NSCLC = system: HOP-92 NSCLC
EKVX NSCLC = system: EKVX NSCLC
SR leukemia = system: SR leukemia
RXF 393 renal = system: RXF 393 renal
NCI-H23 lung = system: NCI-H23 lung
HCC-2998 colon = system: HCC-2998 colon
HCT-116 colon = system: HCT-116 colon
SNB-75 CNS = system: SNB-75 CNS
MALME-3M melanoma = system: MALME-3M melanoma
HL-60(TB) leukemia = system: HL-60(TB) leukemia
OVCAR-5 ovarian = system: OVCAR-5 ovarian
TK-10 renal = system: TK-10 renal
BT-549 breast = system: BT-549 breast
OVCAR-3 ovarian = system: OVCAR-3 ovarian
SF-268 CNS = system: SF-268 CNS
M14 melanoma = system: M14 melanoma
NCI-H460 lung = system: NCI-H460 lung
U251 CNS = system: U251 CNS
SF-295 CNS = system: SF-295 CNS
UACC-257 melanoma = system: UACC-257 melanoma

SMILES: CC(C)C[C@@H](NC(=O)[C@@H](Cc1ccccc1)NC(=O)c1cnccn1)B1Oc2ccc(C[C@H](NC(=O)[C@H](Cc3ccc4c(c3)OB([C@@H](CC(C)C)NC(=O)[C@@H](Cc3ccccc3)NC(=O)c3cnccn3)O4)NC(=O)[C@@H](N)CC3CCC4OB([C@@H](CC(C)C)NC(=O)[C@@H](CC5CCCCC5)NC(=O)C5CNCCN5)OC4C3)C(=O)NCCCC[C@@H]3NC(=O)[C@@H](Cc4ccccc4)NC(=O)[C@H](CC(=O)O)NC(=O)CNC(=O)[C@H](CCCNC(=N)N)NC3=O)cc2O1 (stereo not given in full)
- TGI (IGROV1 ovarian): 250 nM and 917 nM
- GI50 (NCI-H522 lung): 3.33 nM and 2.5 nM
- TGI (NCI-H522 lung): 17.9 nM and 3.85 nM
- GI50 (HS 578T breast): 4.19 nM and 2.5 nM
- TGI (HS 578T breast): > 25000 nM
- GI50 (MOLT-4 leukemia): 3.56 nM and 2.5 nM
- TGI (MOLT-4 leukemia): > 25000 nM
- GI50 (T-47D breast): 3.88 nM and 2.5 nM
- TGI (T-47D breast): 41.1 nM and 11.7 nM
- GI50 (MCF7 breast): 3.78 nM and 2.5 nM
- TGI (MCF7 breast): 439 nM
- GI50 (SK-MEL-2 melanoma): 5.45 nM and 2.5 nM
- TGI (SK-MEL-2 melanoma): 64.9 nM and 9.2 nM
- GI50 (A549 NSCLC): 7.23 nM and 8.38 nM
- TGI (A549 NSCLC): 321 nM
- GI50 (HCT-15 colon): 4.85 nM and 3.49 nM
- TGI (HCT-15 colon): 41 nM and 40.9 nM
- GI50 (HOP-92 NSCLC): 3.69 nM and 2.5 nM
- TGI (HOP-92 NSCLC): 26.7 nM and 9.53 nM
- GI50 (EKVX NSCLC): 10.6 nM and 7.75 nM
- TGI (EKVX NSCLC): 527 nM and 304 nM
- GI50 (SR leukemia): 4.1 nM
- TGI (SR leukemia): 244 nM
- GI50 (RXF 393 renal): 2.44 nM and < 2.5 nM
- TGI (RXF 393 renal): 5.8 nM and < 2.5 nM
- GI50 (NCI-H23 lung): 5.68 nM and 2.5 nM
- TGI (NCI-H23 lung): 41.2 nM and 10.8 nM
- GI50 (HCC-2998 colon): 6.49 nM and 3.89 nM
- TGI (HCC-2998 colon): 19.8 nM and 7.63 nM
- GI50 (HCT-116 colon): 2.73 nM and 2.5 nM
- TGI (HCT-116 colon): 16.4 nM and 2.9 nM
- GI50 (SNB-75 CNS): 3.92 nM
- TGI (SNB-75 CNS): 24.8 nM
- GI50 (MALME-3M melanoma): 3.23 nM and 2.5 nM
- TGI (MALME-3M melanoma): 105 nM and 20.6 nM
- GI50 (HL-60(TB) leukemia): 4.42 nM
- TGI (HL-60(TB) leukemia): 853 nM
- GI50 (OVCAR-5 ovarian): 7.84 nM and 3.82 nM
- TGI (OVCAR-5 ovarian): 132 nM and 360 nM
- GI50 (TK-10 renal): 3.19 nM and 2.5 nM
- GI50 (BT-549 breast): 2.58 nM and 2.5 nM
- TGI (BT-549 breast): 8.12 nM and 3.01 nM
- GI50 (OVCAR-3 ovarian): 2.53 nM and 2.5 nM
- TGI (OVCAR-3 ovarian): 6.73 nM and 3.27 nM
- GI50 (SF-268 CNS): 4.1 nM and 2.8 nM
- TGI (SF-268 CNS): 27.9 nM and 13.6 nM
- GI50 (M14 melanoma): 3.22 nM and 2.5 nM
- GI50 (NCI-H460 lung): 25.3 nM and 7.96 nM
- TGI (NCI-H460 lung): 115 nM and 32.2 nM
- GI50 (U251 CNS): 11.7 nM and 4.76 nM
- TGI (U251 CNS): 149 nM and 21 nM
- GI50 (SF-295 CNS): 3.65 nM and 2.5 nM
- TGI (SF-295 CNS): 17.2 nM and 7.68 nM
- GI50 (UACC-257 melanoma): 4.33 nM and 3.35 nM
- TGI (UACC-257 melanoma): 49.6 nM and 15.6 nM
